Test results reported in PMC4749168, “Potentiation of ΔF508- and G551D-CFTR-Mediated Cl^- Current by Novel Hydroxypyrazolines” (PLoS ONE, 2016).
Entries after “also recorded” stand apart in the source; their conditions may differ.

Key:
[1] = test system: intracellular cAMP; assay: Cyclic AMP assay in FRT cells; format: cell-based, rat; conditions: 10 μM CP7q
Procedure: FRT cells grown on 12 well culture plates were washed 3 times with PBS at 37°C and then incubated in PBS at 37°C containing 100 μM IBMX for […] in the absence or presence of forskolin or CP7q. After 10 min incubation, the cells were washed with cold PBS and cytosolic cAMP was measured using a cAMP immunoassay kit (Parameter TM cAMP immunoassay kit, R&D Systems) according to the manufacturer's protocol.

[2] = target: T1, G551D-CFTR (Homo sapiens, UniProt P13569, G551D); assay: Apical membrane current (Ussing chamber) in FRT cells expressing G551D-CFTR; format: cell-based
T1 construct: expressed in transfected cells; host or cells: Fisher rat thyroid (FRT) cells; provided by Dr. Alan Verkman
Procedure: Snapwell inserts containing CFTR-expressing FRT and primary culture of human nasal epithelial cells were mounted in Ussing chambers (Physiologic Instruments, San Diego, CA). […] For FRT cells, the apical bath was filled with a half-Cl^- solution and the basolateral bath was filled with HCO3^—buffered solution, and the basolateral membrane was permeabilized with 250 μg/mL amphotericin B. For primary cultures of human nasal epithelial cells, symmetrical HCO3^—buffered solutions were used and ENaC was inhibited by pre-treatment with amiloride (100 μM). […] Apical membrane current and short-circuit current were measured with an EVC4000 Multi-Channel V/I Clamp (World Precision Instruments, Sarasota, FL) and recorded using PowerLab 4/35 (AD Instruments, Castle Hill, Australia). Data were collected and analyzed with ADInstruments acquisition software Labchart Pro 7 software. The sampling rate was 4 Hz.

[3] = target: ΔF508-CFTR (Homo sapiens, UniProt P13569, DEL508-508); assay: Apical membrane current of VX-809-rescued ΔF508-CFTR in FRT cells; format: cell-based; parameters: expressed in transfected cells; host or cells: Fisher rat thyroid (FRT) cells, co-expressing halide sensor YFP-H148Q/I152L; provided by Dr. Alan Verkman; conditions: 48 h, combined with 5 μM VX-809, 10 μM CP7q or 5 μM VX-770
Procedure: Snapwell inserts containing CFTR-expressing FRT and primary culture of human nasal epithelial cells were mounted in Ussing chambers (Physiologic Instruments, San Diego, CA). Forskolin, genistein, CP7q and CFTRinh-172 were added to the apical and basolateral bath solution. For FRT cells, the apical bath was filled with a half-Cl^- solution and the basolateral bath was filled with HCO3^—buffered solution, and the basolateral membrane was permeabilized with 250 μg/mL amphotericin B. For primary cultures of human nasal epithelial cells, symmetrical HCO3^—buffered solutions were used and ENaC was inhibited by pre-treatment with amiloride (100 μM). All cells were bathed for a 20 min stabilization period and aerated with 95% O2 / 5% CO2 at 37°C. Apical membrane current and short-circuit current were measured with an EVC4000 Multi-Channel V/I Clamp (World Precision Instruments, Sarasota, FL) and recorded using PowerLab 4/35 (AD Instruments, Castle Hill, Australia). Data were collected and analyzed with ADInstruments acquisition software Labchart Pro 7 software. The sampling rate was 4 Hz.

T1 sequence (P13569 whole entry G551D): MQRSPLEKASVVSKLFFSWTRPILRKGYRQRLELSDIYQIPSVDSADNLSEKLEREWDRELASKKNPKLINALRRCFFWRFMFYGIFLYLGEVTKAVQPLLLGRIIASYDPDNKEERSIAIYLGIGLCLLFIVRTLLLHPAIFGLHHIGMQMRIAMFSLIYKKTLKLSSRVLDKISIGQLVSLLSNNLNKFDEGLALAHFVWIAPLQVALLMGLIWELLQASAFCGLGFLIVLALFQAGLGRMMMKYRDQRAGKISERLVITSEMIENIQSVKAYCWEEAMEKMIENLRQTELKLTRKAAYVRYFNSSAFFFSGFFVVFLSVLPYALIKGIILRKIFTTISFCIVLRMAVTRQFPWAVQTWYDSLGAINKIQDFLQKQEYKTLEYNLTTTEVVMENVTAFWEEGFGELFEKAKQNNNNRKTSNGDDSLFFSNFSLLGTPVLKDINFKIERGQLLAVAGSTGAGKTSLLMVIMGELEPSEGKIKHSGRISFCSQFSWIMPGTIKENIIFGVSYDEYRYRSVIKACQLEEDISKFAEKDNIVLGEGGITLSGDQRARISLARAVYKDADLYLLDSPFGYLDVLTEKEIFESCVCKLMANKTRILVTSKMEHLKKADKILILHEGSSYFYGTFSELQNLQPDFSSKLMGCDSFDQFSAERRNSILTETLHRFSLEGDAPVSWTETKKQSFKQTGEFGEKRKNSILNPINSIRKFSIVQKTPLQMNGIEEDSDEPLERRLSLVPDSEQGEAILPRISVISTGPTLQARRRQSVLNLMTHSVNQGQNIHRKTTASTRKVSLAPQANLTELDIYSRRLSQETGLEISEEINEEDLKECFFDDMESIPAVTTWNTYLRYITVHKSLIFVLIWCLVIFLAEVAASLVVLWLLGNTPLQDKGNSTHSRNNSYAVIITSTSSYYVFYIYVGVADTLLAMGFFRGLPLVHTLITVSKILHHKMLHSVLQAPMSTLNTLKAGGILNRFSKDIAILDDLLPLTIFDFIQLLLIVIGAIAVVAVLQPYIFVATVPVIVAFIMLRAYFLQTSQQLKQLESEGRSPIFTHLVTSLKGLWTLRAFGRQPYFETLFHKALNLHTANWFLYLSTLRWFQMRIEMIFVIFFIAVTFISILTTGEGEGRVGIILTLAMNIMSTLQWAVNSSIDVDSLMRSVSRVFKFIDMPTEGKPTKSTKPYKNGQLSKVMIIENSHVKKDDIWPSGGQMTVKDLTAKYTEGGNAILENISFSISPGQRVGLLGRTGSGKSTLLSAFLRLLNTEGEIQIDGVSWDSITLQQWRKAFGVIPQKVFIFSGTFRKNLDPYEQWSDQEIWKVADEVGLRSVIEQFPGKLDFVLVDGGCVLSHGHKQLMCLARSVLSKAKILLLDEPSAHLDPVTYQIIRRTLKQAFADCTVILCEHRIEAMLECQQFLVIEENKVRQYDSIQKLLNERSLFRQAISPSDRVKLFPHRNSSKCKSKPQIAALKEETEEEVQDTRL
Chain of ΔF508-CFTR (P13569 with tags, fused parts or gaps DEL508-508): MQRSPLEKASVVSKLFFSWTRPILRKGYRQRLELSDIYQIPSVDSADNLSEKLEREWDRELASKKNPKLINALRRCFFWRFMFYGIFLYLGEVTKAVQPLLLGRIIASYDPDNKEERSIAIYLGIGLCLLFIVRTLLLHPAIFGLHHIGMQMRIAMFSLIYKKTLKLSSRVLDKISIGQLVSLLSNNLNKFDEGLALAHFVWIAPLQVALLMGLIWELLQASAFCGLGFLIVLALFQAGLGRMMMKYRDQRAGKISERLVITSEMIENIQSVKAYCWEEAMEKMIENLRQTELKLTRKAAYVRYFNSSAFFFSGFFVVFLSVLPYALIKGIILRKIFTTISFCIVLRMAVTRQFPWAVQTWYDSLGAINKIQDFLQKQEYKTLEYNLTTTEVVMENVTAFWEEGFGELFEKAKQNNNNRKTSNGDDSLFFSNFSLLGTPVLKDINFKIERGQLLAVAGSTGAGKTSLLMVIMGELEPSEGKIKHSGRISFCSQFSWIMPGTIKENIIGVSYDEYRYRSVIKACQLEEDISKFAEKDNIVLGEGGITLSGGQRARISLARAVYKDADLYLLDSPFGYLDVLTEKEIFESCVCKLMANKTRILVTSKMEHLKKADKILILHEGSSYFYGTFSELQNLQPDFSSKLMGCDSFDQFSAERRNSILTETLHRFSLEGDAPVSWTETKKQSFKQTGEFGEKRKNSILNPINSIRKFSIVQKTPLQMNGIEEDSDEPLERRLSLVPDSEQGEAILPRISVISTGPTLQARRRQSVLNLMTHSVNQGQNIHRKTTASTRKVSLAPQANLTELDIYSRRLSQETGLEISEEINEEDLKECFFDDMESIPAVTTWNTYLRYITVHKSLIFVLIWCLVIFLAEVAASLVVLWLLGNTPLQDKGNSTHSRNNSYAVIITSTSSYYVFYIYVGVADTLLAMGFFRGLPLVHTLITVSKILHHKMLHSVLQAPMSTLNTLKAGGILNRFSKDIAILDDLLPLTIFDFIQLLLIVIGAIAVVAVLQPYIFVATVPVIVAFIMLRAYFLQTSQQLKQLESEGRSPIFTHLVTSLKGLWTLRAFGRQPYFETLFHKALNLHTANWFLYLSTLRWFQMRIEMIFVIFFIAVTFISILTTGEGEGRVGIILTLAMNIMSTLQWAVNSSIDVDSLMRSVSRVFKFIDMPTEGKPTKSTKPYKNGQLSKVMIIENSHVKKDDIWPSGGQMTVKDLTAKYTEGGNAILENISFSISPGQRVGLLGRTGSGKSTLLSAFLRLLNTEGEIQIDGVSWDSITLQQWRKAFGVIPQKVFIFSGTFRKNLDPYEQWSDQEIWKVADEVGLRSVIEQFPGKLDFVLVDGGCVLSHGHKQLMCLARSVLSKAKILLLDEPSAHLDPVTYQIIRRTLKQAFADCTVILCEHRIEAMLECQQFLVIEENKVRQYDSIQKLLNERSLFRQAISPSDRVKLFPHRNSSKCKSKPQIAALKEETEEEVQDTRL

For `COc1ccc(C2CC(c3ccc(O)cc3O)=NN2c2ccc(S(N)(=O)=O)cc2)c(OC)c1` (stereo not drawn) [Compound 7q, 4-[3-(2,4-dihydroxyphenyl)-5-(2,4-dimethoxyphenyl)-4,5-dihydro-1H-pyrazol-1-yl] benzenesulfonamide], the “Effect on intracellular cAMP level” value [1] was “did not alter; also recorded: did not affect”, the “Potentiation of G551D-CFTR Cl- current compared with VX-770” value ([2]; 20 μM forskolin, 30 μM CP7q vs 10 μM VX-770) was “comparable to VX-770” and the “Potentiation of G551D-CFTR Cl- current relative to genistein” value ([2]; 20 μM forskolin, 30 μM CP7q vs 50 μM genistein) was 1.9 times. For the same compound, the “Potentiation of G551D-CFTR Cl- current” value ([2]; 20 μM forskolin, 50 μM genistein, 10 μM VX-770, CP7q) was “significantly potentiated”, the “Maximal potentiation of G551D-CFTR chloride conductance relative to genistein” value ([2]; higher than genistein) was 1.9 fold and the “Effect on apical membrane current of VX-809-rescued ΔF508-CFTR” value [3] was “strongly increased”.
